For assay [1], the target named is Mu-type opioid receptor (Rattus norvegicus, UniProt P33535). Put plainly: Compound was tested for its ability to displace [3H]DAMGO from mu receptor in rat brain. The format is tissue-based.
Assay [2] addresses Kappa-type opioid receptor (Cavia porcellus, UniProt P41144). Nature of the assay: Compound was tested for its ability to displace [3H]U-69593 from kappa receptor in guinea pig brain.
Assay [3] has as its target Delta-type opioid receptor (Rattus norvegicus, UniProt P33533). Put plainly: Compound was tested for its ability to displace [3H]DADLE from delta receptor in rat brain. Format: tissue-based.

Kappa-type opioid receptor, sequence (P41144 whole entry): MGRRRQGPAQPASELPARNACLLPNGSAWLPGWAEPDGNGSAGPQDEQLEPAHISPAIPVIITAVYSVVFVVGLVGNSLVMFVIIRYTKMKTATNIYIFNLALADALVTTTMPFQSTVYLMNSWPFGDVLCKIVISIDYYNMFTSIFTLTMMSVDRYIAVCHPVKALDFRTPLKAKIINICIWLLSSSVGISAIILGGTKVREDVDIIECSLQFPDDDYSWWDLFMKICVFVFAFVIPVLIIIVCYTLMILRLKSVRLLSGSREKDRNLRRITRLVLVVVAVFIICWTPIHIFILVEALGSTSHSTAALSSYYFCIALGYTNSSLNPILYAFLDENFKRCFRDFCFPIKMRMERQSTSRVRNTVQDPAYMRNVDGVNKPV
Delta-type opioid receptor, sequence (P33533 whole entry): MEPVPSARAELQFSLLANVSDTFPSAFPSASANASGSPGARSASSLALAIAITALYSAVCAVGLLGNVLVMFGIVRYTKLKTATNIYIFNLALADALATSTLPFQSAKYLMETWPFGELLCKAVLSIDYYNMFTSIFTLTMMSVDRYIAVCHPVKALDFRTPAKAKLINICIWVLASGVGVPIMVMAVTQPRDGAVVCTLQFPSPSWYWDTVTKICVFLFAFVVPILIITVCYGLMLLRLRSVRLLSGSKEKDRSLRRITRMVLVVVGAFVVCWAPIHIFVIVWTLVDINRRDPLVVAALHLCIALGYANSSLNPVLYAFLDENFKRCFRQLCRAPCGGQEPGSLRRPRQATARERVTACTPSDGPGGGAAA
Mu-type opioid receptor, sequence (P33535 whole entry): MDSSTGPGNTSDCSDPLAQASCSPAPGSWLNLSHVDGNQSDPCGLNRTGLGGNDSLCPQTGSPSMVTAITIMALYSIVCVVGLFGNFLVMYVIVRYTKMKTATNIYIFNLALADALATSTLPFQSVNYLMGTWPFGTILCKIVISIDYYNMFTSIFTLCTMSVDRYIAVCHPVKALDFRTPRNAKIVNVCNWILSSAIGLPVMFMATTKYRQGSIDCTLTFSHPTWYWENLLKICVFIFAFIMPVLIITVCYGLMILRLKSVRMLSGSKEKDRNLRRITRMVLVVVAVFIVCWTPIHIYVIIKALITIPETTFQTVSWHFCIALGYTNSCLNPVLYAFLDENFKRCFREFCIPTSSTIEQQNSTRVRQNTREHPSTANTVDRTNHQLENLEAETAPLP

`O[C@@]12Cc3c([nH]c4ccccc34)[C@@H]3Oc4c(-c5ccco5)ccc5c4[C@@]31CCN(CC1CC1)[C@@H]2C5`: the Ki in assay [1] was over 5.68 µM; in assay [2] it was over 6.8 µM; in assay [3], 0.959 µM.

For `Oc1cccc(-c2ccc3c4c2O[C@H]2c5[nH]c6ccccc6c5C[C@@]5(O)[C@@H](C3)N(CC3CC3)CC[C@]425)c1`, the results for the Ki in assay [1], in assay [2] and in assay [3] were over 5.68 µM, over 6.8 µM and 1.61 µM, respectively.

For the compound `Cc1ccc2c3c1O[C@H]1c4[nH]c5ccccc5c4C[C@@]4(O)[C@@H](C2)N(CC2CC2)CC[C@]314`, the Ki in assay [1] was over 5.68 µM; in assay [2], over 6.8 µM; in assay [3], 0.071 µM.

In the case of `O[C@@]12Cc3c([nH]c4ccccc34)[C@@H]3Oc4c(-c5ccccc5)ccc5c4[C@@]31CCN(CC1CC1)[C@@H]2C5`, the Ki in assay [1] was over 5.68 µM; in assay [2], over 6.8 µM; in assay [3], 10.6 µM.

Regarding `COc1cccc(-c2ccc3c4c2O[C@H]2c5[nH]c6ccccc6c5C[C@@]5(O)[C@@H](C3)N(CC3CC3)CC[C@]425)c1`, the figures for the Ki in assay [1], in assay [2] and in assay [3] were over 5.68 µM, over 6.8 µM and over 6.67 µM, respectively.

As for `C=Cc1ccc2c3c1O[C@H]1c4[nH]c5ccccc5c4C[C@@]4(O)[C@@H](C2)N(CC2CC2)CC[C@]314`, the Ki in assay [1] was over 5.68 µM; in assay [2], 17.6 µM; in assay [3] it was 0.061 µM.

On to `O[C@@]12Cc3c([nH]c4ccccc34)[C@H]3Oc4cccc5c4[C@@]31CCN(CC1CC1)[C@@H]2C5`, for which the Ki in assay [1] was over 5.68 µM; in assay [2], 10.9 µM; in assay [3] it was 0.035 µM.

Take `Oc1ccc2c3c1O[C@H]1c4[nH]c5ccccc5c4C[C@@]4(O)[C@@H](C2)N(CC2CC2)CC[C@]314` [NALTRINDOLE]: the results for the Ki in assay [2] and in assay [3] were 0.0304 µM and 0.000217 µM, respectively.
